{
  "source": "patent US9238625B2",
  "about": "“Compositions, synthesis, and methods of using phenylcycloalkylmethylamine derivatives” (Reviva Pharmaceuticals, Inc., priority 2011, dated 2016)",
  "key": {"[1]": {"biological_target": "human recombinant transporter protein norepinephrine (NET) (Homo sapiens (Human), UniProt P23975)", "sequence (P23975 whole entry)": "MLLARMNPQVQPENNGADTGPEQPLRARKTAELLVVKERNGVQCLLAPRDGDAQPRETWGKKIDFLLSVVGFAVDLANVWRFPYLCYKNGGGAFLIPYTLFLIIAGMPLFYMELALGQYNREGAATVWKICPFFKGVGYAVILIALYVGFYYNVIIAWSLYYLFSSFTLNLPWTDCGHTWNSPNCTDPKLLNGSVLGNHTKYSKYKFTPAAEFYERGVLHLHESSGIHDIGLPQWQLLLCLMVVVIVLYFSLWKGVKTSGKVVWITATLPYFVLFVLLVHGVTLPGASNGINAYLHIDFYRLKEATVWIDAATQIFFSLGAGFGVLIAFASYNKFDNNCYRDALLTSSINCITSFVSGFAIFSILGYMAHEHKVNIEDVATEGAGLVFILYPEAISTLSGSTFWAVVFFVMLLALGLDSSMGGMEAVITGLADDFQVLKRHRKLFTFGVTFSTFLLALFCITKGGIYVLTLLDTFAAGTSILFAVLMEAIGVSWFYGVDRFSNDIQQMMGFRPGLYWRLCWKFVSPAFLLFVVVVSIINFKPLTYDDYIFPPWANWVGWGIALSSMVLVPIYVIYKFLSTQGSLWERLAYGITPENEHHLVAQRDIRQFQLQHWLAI", "assay": "radioligand binding assay, norepinephrine transporter", "settings": "11 test concentrations 0.1 nM to 1 μM, duplicates, hydrochloride salts", "description": "(§1) The monoamine transporters inhibitory activities of selected cycloalkylmethylamines of Formula (I) are reported herein. The compounds were evaluated using well established radioligand binding assays protocols (Galli, A. et al., J. Exp. Biol. 1995, 198, 2197-2212; Giros, B. et al., Trends Pharmcol. Sci. 1993, 14, 43-49; Gu, H. et al., J. Biol. Chem. 1994, 269(10), 7124-7130; Shearman, L. P. et al, Am. J. Physiol., 1998, 275(6 Pt 1), C1621-1629; Wolf, W. A. et al., J. Biol. Chem. 1992, 267(29), 20820-20825). The human recombinant transporter proteins dopamine (DAT), norepinephrine (NET) and serotonin (SERT) were selected for the in vitro assays. The radioligand binding assays were carried out at 11 different test concentrations 0.1 nM to 1 μM.\n(§2) The assays were carried out in duplicates and the quantitative data are reported as Ki in the Table 1."}, "[2]": {"biological_target": "human recombinant transporter protein dopamine (DAT) (Homo sapiens (Human), UniProt Q01959)", "sequence (Q01959 whole entry)": "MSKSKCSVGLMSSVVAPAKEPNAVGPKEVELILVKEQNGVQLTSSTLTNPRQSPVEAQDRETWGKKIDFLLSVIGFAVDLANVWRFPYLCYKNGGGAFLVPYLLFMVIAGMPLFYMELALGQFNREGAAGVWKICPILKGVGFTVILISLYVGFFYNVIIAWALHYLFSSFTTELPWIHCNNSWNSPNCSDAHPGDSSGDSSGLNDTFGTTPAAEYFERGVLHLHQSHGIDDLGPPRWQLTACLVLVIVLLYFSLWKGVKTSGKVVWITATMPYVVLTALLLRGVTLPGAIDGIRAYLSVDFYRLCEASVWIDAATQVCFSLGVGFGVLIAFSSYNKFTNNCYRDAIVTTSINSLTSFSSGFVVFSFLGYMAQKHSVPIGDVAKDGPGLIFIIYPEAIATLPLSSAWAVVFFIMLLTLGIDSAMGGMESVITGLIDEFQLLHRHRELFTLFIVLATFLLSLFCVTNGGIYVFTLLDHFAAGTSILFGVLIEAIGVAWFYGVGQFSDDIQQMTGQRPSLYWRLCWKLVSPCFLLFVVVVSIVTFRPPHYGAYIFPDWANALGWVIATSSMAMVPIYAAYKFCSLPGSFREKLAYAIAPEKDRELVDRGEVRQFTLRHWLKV", "assay": "radioligand binding assay, dopamine transporter", "settings": "11 test concentrations 0.1 nM to 1 μM, duplicates, hydrochloride salts", "description": "as §1, §2"}, "[3]": {"biological_target": "human recombinant transporter protein serotonin (SERT) (Homo sapiens (Human), UniProt P31645)", "assay": "radioligand binding assay, serotonin transporter", "settings": "11 test concentrations 0.1 nM to 1 μM, duplicates, hydrochloride salts", "description": "as §1, §2"}, "[4]": {"settings": "active metabolites of sibutramine; cited from earlier work"}},
  "data": [
    {"smiles": "CCOCCCCNC(CC(C)C)C1(c2ccc(SC)cc2)CCC1", "note": "(centres unmarked) [Compound 7g, N-(4-Ethoxybutyl)-3-methyl-1-(1-(4-(methylthio)phenyl)cyclobutyl)butan-1-amine]", "values": [
      {"measurement": "Ki", "setting": "[1]", "result": 37.2, "unit": "nM"},
      {"measurement": "Ki", "setting": "[2]", "result": 92, "unit": "nM"},
      {"measurement": "Ki", "setting": "[3]", "result": 2.99, "unit": "nM"}
    ]},
    {"smiles": "CCOCCNC(CC(C)C)C1(c2ccc(Cl)c(Cl)c2)CCC1", "note": "(centres unmarked) [Compound 8a, 1-(1-(3,4-Dichlorophenyl)cyclobutyl)-N-(2-ethoxyethyl)-3-methylbutan-1-amine]", "values": [
      {"measurement": "Ki", "setting": "[1]", "result": 46.7, "unit": "nM"},
      {"measurement": "Ki", "setting": "[2]", "result": 2.38, "unit": "nM"},
      {"measurement": "Ki", "setting": "[3]", "result": 1.4, "unit": "nM"}
    ]},
    {"smiles": "CCCOCCCN[C@H](CC(C)C)C1(c2ccc(Cl)c(Cl)c2)CCC1", "note": "[Compound 8d, (R)-1-(1-(3,4-Dichlorophenyl)cyclobutyl)-N-(3-propoxypropyl)-3-methylbutan-1-amine]", "values": [
      {"measurement": "Ki", "setting": "[1]", "result": 72, "unit": "nM"},
      {"measurement": "Ki", "setting": "[2]", "result": 5.45, "unit": "nM"},
      {"measurement": "Ki", "setting": "[3]", "result": 3.8, "unit": "nM"}
    ]},
    {"smiles": "COCCCCN[C@H](CC(C)C)C1(c2ccc(Cl)c(Cl)c2)CCC1", "note": "[Compound 8h, (R)-1-(1-(3,4-Dichlorophenyl)cyclobutyl)-N-(4-methoxybutyl)-3-methylbutan-1-amine]", "values": [
      {"measurement": "Ki", "setting": "[1]", "result": 12.7, "unit": "nM"},
      {"measurement": "Ki", "setting": "[2]", "result": 2.39, "unit": "nM"},
      {"measurement": "Ki", "setting": "[3]", "result": 1.19, "unit": "nM"}
    ]},
    {"smiles": "CCOCCCCN[C@H](CC(C)C)C1(c2ccc(Cl)c(Cl)c2)CCC1", "note": "[Compound 8j, (R)-1-(1-(3,4-Dichlorophenyl)cyclobutyl)-N-(4-ethoxybutyl)-3-methylbutan-1-amine]", "values": [
      {"measurement": "Ki", "setting": "[1]", "result": 11, "unit": "nM"},
      {"measurement": "Ki", "setting": "[2]", "result": 1.16, "unit": "nM"},
      {"measurement": "Ki", "setting": "[3]", "result": 0.8, "unit": "nM"}
    ]},
    {"smiles": "CCSCCCCNC(CC(C)C)C1(c2ccc(Cl)cc2)CCC1", "note": "(centres unmarked) [Compound 12b, 1-(1-(4-Chlorophenyl)cyclobutyl)-N-(4-(ethylthio)butyl)-3-methylbutan-1-amine]", "values": [
      {"measurement": "Ki", "setting": "[1]", "result": 51.9, "unit": "nM"},
      {"measurement": "Ki", "setting": "[2]", "result": 67.6, "unit": "nM"},
      {"measurement": "Ki", "setting": "[3]", "result": 18.8, "unit": "nM"}
    ]},
    {"smiles": "CCOc1ccc(C2(C(CC(C)C)NCCSCC)CCC2)cc1", "note": "(centres unmarked) [Compound 12c, 1-(1-(4-Ethoxyphenyl)cyclobutyl)-N-(2-(ethylthio)ethyl)-3-methylbutan-1-amine]", "values": [
      {"measurement": "Ki", "setting": "[1]", "result": 1420, "unit": "nM"},
      {"measurement": "Ki", "setting": "[2]", "result": 116, "unit": "nM"},
      {"measurement": "Ki", "setting": "[3]", "result": 3.31, "unit": "nM"}
    ]},
    {"smiles": "CCSCCCCNC(CC(C)C)C1(c2ccc(Cl)c(Cl)c2)CCC1", "note": "(centres unmarked) [Compound 13c, 1-(1-(3,4-Dichlorophenyl)cyclobutyl)-N-(4-(ethylthio)butyl)-3-methylbutan-1-amine]", "values": [
      {"measurement": "Ki", "setting": "[1]", "result": 17.1, "unit": "nM"},
      {"measurement": "Ki", "setting": "[2]", "result": 23.9, "unit": "nM"},
      {"measurement": "Ki", "setting": "[3]", "result": 14.8, "unit": "nM"}
    ]},
    {"smiles": "CCCCSCCCCNC(CC(C)C)C1(c2ccc(Cl)c(Cl)c2)CCC1", "note": "(centres unmarked) [Compound 13d, N-(4-(Butylthio)butyl)-1-(1-(3,4-dichlorophenyl)cyclobutyl)-3-methylbutan-1-amine]", "values": [
      {"measurement": "Ki", "setting": "[1]", "result": 51, "unit": "nM"},
      {"measurement": "Ki", "setting": "[2]", "result": 104, "unit": "nM"},
      {"measurement": "Ki", "setting": "[3]", "result": 65.3, "unit": "nM"}
    ]},
    {"smiles": "CCSCCNC(CC)C1(c2ccc(Cl)c(Cl)c2)CCC1", "note": "(centres unmarked) [Compound 13f, 1-(1-(3,4-dichlorophenyl)cyclobutyl)-N-(2-(ethylthio)ethyl)propan-1-amine]", "values": [
      {"measurement": "Ki", "setting": "[1]", "result": 119, "unit": "nM"},
      {"measurement": "Ki", "setting": "[2]", "result": 49.2, "unit": "nM"},
      {"measurement": "Ki", "setting": "[3]", "result": 224, "unit": "nM"}
    ]},
    {"smiles": "CCS(=O)(=O)CCCCNC(CC(C)C)C1(c2ccc(Cl)c(Cl)c2)CCC1", "note": "(centres unmarked) [Compound 17a, 1-(1-(3,4-Dichlorophenyl)cyclobutyl)-N-(4-(ethylsulfonyl)butyl)-3-methylbutan-1-amine]", "values": [
      {"measurement": "Ki", "setting": "[1]", "result": 44.7, "unit": "nM"},
      {"measurement": "Ki", "setting": "[2]", "result": 29.4, "unit": "nM"},
      {"measurement": "Ki", "setting": "[3]", "result": 38.4, "unit": "nM"}
    ]},
    {"smiles": "CNC(CC(C)C)C1(c2ccc(Cl)cc2)CCC1", "note": "(centres unmarked) [Compound M1]", "values": [
      {"measurement": "elimination half-life", "setting": "[4]", "result": 14, "unit": "h"}
    ]},
    {"smiles": "CC(C)CC(N)C1(c2ccc(Cl)cc2)CCC1", "note": "(centres unmarked) [Compound M2]", "values": [
      {"measurement": "elimination half-life", "setting": "[4]", "result": 16, "unit": "h"}
    ]}
  ]
}
